Assays:
[1] = target: Ribosomal protein S6 kinase beta-1 (Homo sapiens) (UniProt P23443); test: Inhibition of partial length wild type human S6K1 expressed in mammalian system assessed as enzyme activity at 1 uM relative to control; set-up: scale not given: the % may be the effect or the level left
[2] = target: Insulin receptor (Homo sapiens) (UniProt P06213); test: Inhibition of partial length wild type human INSR expressed in mammalian system assessed as enzyme activity at 1 uM relative to control; set-up: scale not given: the % may be the effect or the level left
[3] = target: Rho-associated protein kinase 2 (Homo sapiens) (UniProt O75116); test: Inhibition of partial length wild type human ROCK2 expressed in mammalian system assessed as enzyme activity at 1 uM relative to control; set-up: scale not given: the % may be the effect or the level left
[4] = target: ALK tyrosine kinase receptor (Homo sapiens) (UniProt Q9UM73); test: Inhibition of partial length wild type human ALK expressed in mammalian system assessed as enzyme activity at 1 uM relative to control; set-up: scale not given: the % may be the effect or the level left
[5] = target: Serine/threonine-protein kinase pim-1 (Homo sapiens) (UniProt P11309); test: Inhibition of partial length wild type human PIM1 expressed in bacterial system assessed as enzyme activity at 1 uM relative to control; set-up: scale not given: the % may be the effect or the level left
[6] = target: Serine/threonine-protein kinase Nek4 (Homo sapiens) (UniProt P51957); test: Inhibition of full length wild type human NEK4 expressed in mammalian system assessed as enzyme activity at 1 uM relative to control; set-up: scale not given: the % may be the effect or the level left
[7] = target: Insulin-like growth factor 1 receptor (Homo sapiens) (UniProt P08069); test: Inhibition of partial length wild type human IGF1R expressed in bacterial system assessed as enzyme activity at 1 uM relative to control; set-up: scale not given: the % may be the effect or the level left
[8] = target: Cyclin-dependent kinase 2 (Homo sapiens) (UniProt P24941); test: Inhibition of full length wild type human CDK2 expressed in bacterial system assessed as enzyme activity at 1 uM relative to control; set-up: scale not given: the % may be the effect or the level left
[9] = target: Casein kinase I isoform gamma-2 (Homo sapiens) (UniProt P78368); test: Inhibition of full length wild type human CSNK1G2 expressed in bacterial system assessed as enzyme activity at 1 uM relative to control; set-up: scale not given: the % may be the effect or the level left
Chain of Casein kinase I isoform gamma-2 (Homo sapiens) (P78368 whole entry, looked up, canonical isoform): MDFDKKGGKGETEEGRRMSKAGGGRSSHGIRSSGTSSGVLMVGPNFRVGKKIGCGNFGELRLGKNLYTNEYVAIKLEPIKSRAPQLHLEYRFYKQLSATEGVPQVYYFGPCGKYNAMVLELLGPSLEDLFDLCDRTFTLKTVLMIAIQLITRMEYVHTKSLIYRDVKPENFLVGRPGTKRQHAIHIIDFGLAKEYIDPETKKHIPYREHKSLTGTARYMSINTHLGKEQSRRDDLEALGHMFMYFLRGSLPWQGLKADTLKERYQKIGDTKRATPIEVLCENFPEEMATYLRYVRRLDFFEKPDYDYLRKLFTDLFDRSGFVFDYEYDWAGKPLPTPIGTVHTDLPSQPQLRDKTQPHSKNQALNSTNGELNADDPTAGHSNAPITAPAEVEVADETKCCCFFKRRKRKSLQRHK

[10] = target: Receptor-type tyrosine-protein kinase FLT3 (Homo sapiens) (UniProt P36888); test: Inhibition of partial length wild type human FLT3 expressed in bacterial system assessed as enzyme activity at 1 uM relative to control; set-up: scale not given: the % may be the effect or the level left
Chain of Receptor-type tyrosine-protein kinase FLT3 (Homo sapiens) (P36888 whole entry): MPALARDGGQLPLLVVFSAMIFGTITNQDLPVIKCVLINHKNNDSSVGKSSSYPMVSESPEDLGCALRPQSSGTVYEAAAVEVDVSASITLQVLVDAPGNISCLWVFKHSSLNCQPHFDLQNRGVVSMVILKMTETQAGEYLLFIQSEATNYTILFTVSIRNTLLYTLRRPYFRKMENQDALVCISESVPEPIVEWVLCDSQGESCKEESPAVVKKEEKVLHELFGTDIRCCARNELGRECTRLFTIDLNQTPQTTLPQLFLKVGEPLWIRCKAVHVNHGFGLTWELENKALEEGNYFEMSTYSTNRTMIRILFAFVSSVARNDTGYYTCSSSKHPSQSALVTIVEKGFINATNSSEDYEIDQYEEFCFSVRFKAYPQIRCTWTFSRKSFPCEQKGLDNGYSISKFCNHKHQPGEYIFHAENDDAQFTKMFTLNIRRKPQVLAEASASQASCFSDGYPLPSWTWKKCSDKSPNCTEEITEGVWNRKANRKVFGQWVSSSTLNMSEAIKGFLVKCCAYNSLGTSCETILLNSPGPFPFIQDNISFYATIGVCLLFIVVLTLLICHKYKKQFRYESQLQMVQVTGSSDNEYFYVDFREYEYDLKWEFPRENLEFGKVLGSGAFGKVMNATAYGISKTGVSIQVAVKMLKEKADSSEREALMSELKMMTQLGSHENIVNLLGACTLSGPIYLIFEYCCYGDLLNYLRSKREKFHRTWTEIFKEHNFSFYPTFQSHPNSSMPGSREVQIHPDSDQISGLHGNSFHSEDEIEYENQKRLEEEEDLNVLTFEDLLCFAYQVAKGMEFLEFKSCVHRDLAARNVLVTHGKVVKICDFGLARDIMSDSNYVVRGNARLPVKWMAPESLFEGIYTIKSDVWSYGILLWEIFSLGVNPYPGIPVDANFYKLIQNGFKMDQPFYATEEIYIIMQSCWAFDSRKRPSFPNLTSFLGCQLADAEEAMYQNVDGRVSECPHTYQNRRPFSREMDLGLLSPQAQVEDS

[11] = target: Mitogen-activated protein kinase kinase kinase 7 (Homo sapiens) (UniProt O43318); test: Inhibition of partial length wild type human TAK1 expressed in mammalian system assessed as enzyme activity at 1 uM relative to control; set-up: scale not given: the % may be the effect or the level left
Chain of Mitogen-activated protein kinase kinase kinase 7 (Homo sapiens) (O43318 whole entry): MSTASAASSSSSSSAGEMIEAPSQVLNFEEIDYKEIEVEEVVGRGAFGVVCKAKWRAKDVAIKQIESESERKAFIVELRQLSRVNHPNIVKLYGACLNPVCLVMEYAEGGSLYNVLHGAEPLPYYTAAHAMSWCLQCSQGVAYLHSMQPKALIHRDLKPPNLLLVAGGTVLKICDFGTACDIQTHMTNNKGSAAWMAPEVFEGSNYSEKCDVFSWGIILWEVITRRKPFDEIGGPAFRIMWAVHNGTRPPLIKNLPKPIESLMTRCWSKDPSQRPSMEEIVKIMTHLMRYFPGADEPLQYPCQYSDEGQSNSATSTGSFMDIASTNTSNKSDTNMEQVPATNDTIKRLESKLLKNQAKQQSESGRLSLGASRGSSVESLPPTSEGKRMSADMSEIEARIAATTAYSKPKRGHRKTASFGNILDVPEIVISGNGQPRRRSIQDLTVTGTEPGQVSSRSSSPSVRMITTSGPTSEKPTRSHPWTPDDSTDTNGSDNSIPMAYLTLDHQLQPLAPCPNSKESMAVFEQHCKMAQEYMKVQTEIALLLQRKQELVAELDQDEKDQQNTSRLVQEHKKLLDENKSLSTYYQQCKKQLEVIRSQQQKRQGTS

[12] = target: Hepatocyte growth factor receptor (Homo sapiens) (UniProt P08581); test: Inhibition of partial length wild type human MET expressed in bacterial system assessed as enzyme activity at 1 uM relative to control; set-up: scale not given: the % may be the effect or the level left
[13] = target: Tyrosine-protein kinase Lck (Homo sapiens) (UniProt P06239); test: Inhibition of partial length wild type human LCK expressed in bacterial system assessed as enzyme activity at 1 uM relative to control; set-up: scale not given: the % may be the effect or the level left
[14] = target: Dual specificity protein kinase CLK2 (Homo sapiens) (UniProt P49760); test: Inhibition of partial length wild type human CLK2 expressed in bacterial system assessed as enzyme activity at 1 uM relative to control; set-up: scale not given: the % may be the effect or the level left
Chain of Dual specificity protein kinase CLK2 (Homo sapiens) (P49760 whole entry, looked up): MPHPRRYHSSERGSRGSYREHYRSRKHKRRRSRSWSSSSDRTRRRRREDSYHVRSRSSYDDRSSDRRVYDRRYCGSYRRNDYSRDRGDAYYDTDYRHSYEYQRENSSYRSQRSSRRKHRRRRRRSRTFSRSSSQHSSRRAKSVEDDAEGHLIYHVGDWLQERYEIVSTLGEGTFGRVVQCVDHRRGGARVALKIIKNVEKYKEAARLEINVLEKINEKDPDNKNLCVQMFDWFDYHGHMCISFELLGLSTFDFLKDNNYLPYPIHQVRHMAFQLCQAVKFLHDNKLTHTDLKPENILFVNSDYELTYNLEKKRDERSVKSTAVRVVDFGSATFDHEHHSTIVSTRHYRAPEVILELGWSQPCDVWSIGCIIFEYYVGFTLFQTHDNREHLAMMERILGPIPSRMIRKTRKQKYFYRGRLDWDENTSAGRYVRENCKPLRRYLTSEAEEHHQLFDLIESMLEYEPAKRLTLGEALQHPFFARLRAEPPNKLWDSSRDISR

[15] = test system: MIA PaCa-2; test: Selectivity index, ratio of EC50 for wild type B-Raf in human MIAPaCa2 cells to IC50 for B-Raf V600E mutant in human A375 cells; assay type: cell-based
[16] = target: Epidermal growth factor receptor (Homo sapiens) (UniProt P00533); test: Inhibition of partial length wild type human EGFR expressed in bacterial system assessed as enzyme activity at 1 uM relative to control; set-up: scale not given: the % may be the effect or the level left
[17] = target: Platelet-derived growth factor receptor beta (Homo sapiens) (UniProt P09619); test: Inhibition of partial length wild type human PDGFRbeta expressed in bacterial system assessed as enzyme activity at 1 uM relative to control; set-up: scale not given: the % may be the effect or the level left
[18] = target: Ephrin type-A receptor 2 (Homo sapiens) (UniProt P29317); test: Inhibition of partial length wild type human EPHA2 expressed in bacterial system assessed as enzyme activity at 1 uM relative to control; set-up: scale not given: the % may be the effect or the level left
[19] = target: Serine/threonine-protein kinase 33 (Homo sapiens) (UniProt Q9BYT3); test: Inhibition of full length wild type human STK33 expressed in bacterial system assessed as enzyme activity at 1 uM relative to control; set-up: scale not given: the % may be the effect or the level left
[20] = target: Serine/threonine-protein kinase B-raf (Homo sapiens, UniProt P15056); test: Inhibition of wild type B-Raf (unknown origin) assessed as MEK1 phosphorylation using MEK1-Avitag as substrate after 1 hr by HTRF assay
[21] = target: Non-receptor tyrosine-protein kinase TYK2 (Homo sapiens) (UniProt P29597); test: Inhibition of partial length wild type human TYK2 (catalytic JH1 domain) expressed in mammalian system assessed as enzyme activity at 1 uM relative to control; set-up: scale not given: the % may be the effect or the level left
[22] = target: Proto-oncogene tyrosine-protein kinase Src (Homo sapiens) (UniProt P12931); test: Inhibition of partial length wild type human SRC expressed in bacterial system assessed as enzyme activity at 1 uM relative to control; set-up: scale not given: the % may be the effect or the level left
[23] = target: Calcium/calmodulin-dependent protein kinase type II subunit delta (Homo sapiens) (UniProt Q13557); test: Inhibition of partial length wild type human CAMK2delta expressed in bacterial system assessed as enzyme activity at 1 uM relative to control; set-up: scale not given: the % may be the effect or the level left
[24] = target: cGMP-dependent protein kinase 1 (Homo sapiens) (UniProt Q13976); test: Inhibition of partial length wild type human PRKG1 expressed in bacterial system assessed as enzyme activity at 1 uM relative to control; set-up: scale not given: the % may be the effect or the level left
[25] = target: Serine/threonine-protein kinase Nek6 (Homo sapiens) (UniProt Q9HC98); test: Inhibition of full length wild type human NEK6 expressed in bacterial system assessed as enzyme activity at 1 uM relative to control; set-up: scale not given: the % may be the effect or the level left
Chain of Serine/threonine-protein kinase Nek6 (Homo sapiens) (Q9HC98 whole entry): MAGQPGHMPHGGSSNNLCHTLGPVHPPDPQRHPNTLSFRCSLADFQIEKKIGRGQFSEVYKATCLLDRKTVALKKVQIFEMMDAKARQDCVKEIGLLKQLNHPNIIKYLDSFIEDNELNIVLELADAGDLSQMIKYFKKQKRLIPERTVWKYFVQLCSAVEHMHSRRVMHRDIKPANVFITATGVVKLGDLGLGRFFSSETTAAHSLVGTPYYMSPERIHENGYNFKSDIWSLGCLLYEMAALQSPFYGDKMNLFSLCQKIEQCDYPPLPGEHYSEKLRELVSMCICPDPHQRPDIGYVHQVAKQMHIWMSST

[26] = target: Serine/threonine-protein kinase Chk1 (Homo sapiens) (UniProt O14757); test: Inhibition of partial length wild type human CHEK1 expressed in bacterial system assessed as enzyme activity at 1 uM relative to control; set-up: scale not given: the % may be the effect or the level left
Chain of Serine/threonine-protein kinase Chk1 (Homo sapiens) (O14757 whole entry): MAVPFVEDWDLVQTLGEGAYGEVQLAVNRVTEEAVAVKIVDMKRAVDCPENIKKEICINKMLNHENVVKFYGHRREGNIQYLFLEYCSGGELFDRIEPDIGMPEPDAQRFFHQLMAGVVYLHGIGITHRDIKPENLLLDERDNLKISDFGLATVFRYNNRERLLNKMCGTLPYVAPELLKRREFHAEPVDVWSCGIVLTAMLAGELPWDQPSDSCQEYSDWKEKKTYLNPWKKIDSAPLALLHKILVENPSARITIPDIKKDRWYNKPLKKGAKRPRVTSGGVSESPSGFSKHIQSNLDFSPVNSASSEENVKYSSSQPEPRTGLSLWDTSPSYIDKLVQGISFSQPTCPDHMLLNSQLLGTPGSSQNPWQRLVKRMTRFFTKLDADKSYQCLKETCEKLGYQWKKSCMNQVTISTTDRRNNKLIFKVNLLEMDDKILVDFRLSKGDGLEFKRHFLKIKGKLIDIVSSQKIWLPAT

[27] = target: Tyrosine-protein kinase SYK (Homo sapiens) (UniProt P43405); test: Inhibition of partial length wild type human SYK expressed in bacterial system assessed as enzyme activity at 1 uM relative to control; set-up: scale not given: the % may be the effect or the level left
[28] = target: Ribosomal protein S6 kinase alpha-5 (Homo sapiens) (UniProt O75582); test: Inhibition of partial length wild type human RPS6KA5 (N-terminal Kinase Domain 1) expressed in bacterial system assessed as enzyme activity at 1 uM relative to control; set-up: scale not given: the % may be the effect or the level left
Chain of Ribosomal protein S6 kinase alpha-5 (Homo sapiens) (O75582 whole entry, looked up, the tested form may be a part): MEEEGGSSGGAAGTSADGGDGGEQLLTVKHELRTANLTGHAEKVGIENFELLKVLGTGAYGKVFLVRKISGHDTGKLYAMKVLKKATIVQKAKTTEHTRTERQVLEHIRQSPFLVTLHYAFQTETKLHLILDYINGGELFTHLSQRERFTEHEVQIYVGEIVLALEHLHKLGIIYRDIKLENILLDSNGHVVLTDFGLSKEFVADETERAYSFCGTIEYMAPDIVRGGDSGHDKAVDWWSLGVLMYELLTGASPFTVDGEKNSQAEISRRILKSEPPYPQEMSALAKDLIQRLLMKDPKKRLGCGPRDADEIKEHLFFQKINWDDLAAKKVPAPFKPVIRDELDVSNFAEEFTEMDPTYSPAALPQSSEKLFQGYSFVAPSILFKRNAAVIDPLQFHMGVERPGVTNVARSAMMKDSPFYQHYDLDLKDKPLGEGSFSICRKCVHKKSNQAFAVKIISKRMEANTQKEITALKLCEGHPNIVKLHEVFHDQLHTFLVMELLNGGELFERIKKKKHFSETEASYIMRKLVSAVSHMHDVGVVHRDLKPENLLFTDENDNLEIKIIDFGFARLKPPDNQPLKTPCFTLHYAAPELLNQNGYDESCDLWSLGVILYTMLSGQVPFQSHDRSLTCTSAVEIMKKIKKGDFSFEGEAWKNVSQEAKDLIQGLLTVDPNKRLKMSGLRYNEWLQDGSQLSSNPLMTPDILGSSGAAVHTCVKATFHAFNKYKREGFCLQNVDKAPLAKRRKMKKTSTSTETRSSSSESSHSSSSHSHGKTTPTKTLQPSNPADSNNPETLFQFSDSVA

[29] = target: Mitogen-activated protein kinase 14 (Homo sapiens) (UniProt Q16539); test: Inhibition of full length wild type human p38alpha expressed in bacterial system assessed as enzyme activity at 1 uM relative to control; set-up: scale not given: the % may be the effect or the level left
[30] = target: Tyrosine-protein kinase JAK2 (Homo sapiens) (UniProt O60674); test: Inhibition of partial length wild type human JAK2 (catalytic JH1 domain) expressed in mammalian system assessed as enzyme activity at 1 uM relative to control; set-up: scale not given: the % may be the effect or the level left
[31] = target: Ribosomal protein S6 kinase alpha-1 (Homo sapiens) (UniProt Q15418); test: Inhibition of partial length wild type human RSK1(Kin.Dom.1-N-terminal) expressed in bacterial system assessed as enzyme activity at 1 uM relative to control; set-up: scale not given: the % may be the effect or the level left
[32] = target: Dual specificity tyrosine-phosphorylation-regulated kinase 1B (Homo sapiens) (UniProt Q9Y463); test: Inhibition of partial length wild type human DYRK1B expressed in bacterial system assessed as enzyme activity at 1 uM relative to control; set-up: scale not given: the % may be the effect or the level left
Chain of Dual specificity tyrosine-phosphorylation-regulated kinase 1B (Homo sapiens) (Q9Y463 whole entry, looked up): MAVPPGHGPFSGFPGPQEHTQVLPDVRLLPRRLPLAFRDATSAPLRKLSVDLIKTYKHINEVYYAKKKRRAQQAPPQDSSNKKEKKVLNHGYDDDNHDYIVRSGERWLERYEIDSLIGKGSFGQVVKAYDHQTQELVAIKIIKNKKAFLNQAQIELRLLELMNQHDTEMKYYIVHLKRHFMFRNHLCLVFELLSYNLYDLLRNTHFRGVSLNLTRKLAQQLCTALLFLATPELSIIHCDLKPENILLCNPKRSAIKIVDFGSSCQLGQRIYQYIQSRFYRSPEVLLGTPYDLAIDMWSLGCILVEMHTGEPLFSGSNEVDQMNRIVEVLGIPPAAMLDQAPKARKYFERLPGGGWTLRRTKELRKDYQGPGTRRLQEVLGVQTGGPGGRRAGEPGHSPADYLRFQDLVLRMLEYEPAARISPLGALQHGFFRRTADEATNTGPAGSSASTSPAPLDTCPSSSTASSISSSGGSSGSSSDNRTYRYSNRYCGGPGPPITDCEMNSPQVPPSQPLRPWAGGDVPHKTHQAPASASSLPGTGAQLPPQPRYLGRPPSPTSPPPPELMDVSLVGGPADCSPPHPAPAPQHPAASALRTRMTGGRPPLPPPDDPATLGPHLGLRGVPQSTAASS

In the case of `CN(C)S(=O)(=O)Nc1ccc(F)c(Nc2ncccc2-c2ncnc3[nH]cnc23)c1F`, the Activity [1] is reported as 100%, the Activity [2] is reported as 100% and the Activity [3] is reported as 92%. For the same compound, the Activity [4] was 96%, the Activity [5] was 83% and the Activity [6] was 100%. For the same compound, the Activity [7] was 98%, the Activity [8] was 99% and the Activity [9] was 60%. It also gave an Activity [10] of 71%, an Activity [11] of 70% and an Activity [12] of 88%. It also gave an Activity [13] of 79%, an Activity [14] of 79% and a Ratio [15] of 33. The Activity [16] was 66%, the Activity [17] was 73% and the Activity [18] was 74%. It also gave an Activity [19] of 100%, an IC50 [20] of 0.09 µM and an Activity [21] of 100%. For the same compound, the Activity [22] was 100%, the Activity [23] was 83% and the Activity [24] was 92%. The Activity [25] was 79%, the Activity [26] was 86% and the Activity [27] was 76%. The Activity [28] was 100%, the Activity [29] was 91% and the Activity [30] was 100%. For the same compound, the Activity [31] was 94% and the Activity [32] was 99%.

Reference: ChEMBL document CHEMBL3797029, “Purinylpyridinylamino-based DFG-in/αC-helix-out B-Raf inhibitors: Applying mutant versus wild-type B-Raf selectivity indices for compound profiling” (Bioorg Med Chem, 2016)
